Structures can show the parent of a compound that is named as a salt.
Experiments:
Human Thrombocytes = test: Fibrinogen Binding to Human Thrombocytes (I125-fibrinogen, gel-filtered platelets); conditions: inhibition of I125-fibrinogen binding to gel-filtered human platelets, ADP, 20 minutes, ambient temperature; read-out: Fibrinogen Binding test IC50
Protocol: 1. Fibrinogen Binding to Human Thrombocytes Blood obtained by puncture of an antecubital vein was anticoagulated with trisodium citrate (final concentration: 13 mM) and centrifuged for 10 minutes at 170 *g. The supernatant platelet-rich plasma was placed on a Sepharose 2B column (Pharmacia) and eluted with a solution of 90 mM common salt, 14 mM trisodium citrate, 5 mM glucose and 50 mM tris(hydroxymethyl)aminomethane, adjusted to pH 7.4. The gel-filtered platelets (GFP) appearing in front of the plasma proteins were used for the binding tests. 50 μl of a 60 mM calcium chloride solution, 50 μl of a 0.6 mM adenosine diphosphate solution, 100 μl of substance solution or solvent and 50 μl of fibrinogen solution (containing 3 μg I125-fibrinogen) were added to 750 μl of GFP and incubated for 20 minutes at ambient temperature. The non-specific binding was measured in the presence of 3 mg/ml of cold fibrinogen. 900 μl of the incubate were carefully pipetted onto 250 μl of silicon oil (AP 38: AR 20, 1:2 v/v, Wacker Chemie) in Eppendorf vessels and centrifuged for 2 minutes at 10,000 *g. The aqueous supernatant and some of the oil were removed, the tip of the vessel with the platelet pellet was cut off and the quantity of bound fibrinogen was measured in a gamma-counter. The concentration of substance which inhibited fibrinogen binding by 50% was calculated from a series of concentrations and given as the IC50.

[1] = tested on: thrombocyte aggregation in platelet-rich plasma; test: Antithrombotic effect: collagen-induced thrombocyte aggregation in platelet-rich plasma (Born and Cross); format: cell-based; conditions: human platelet-rich plasma, 10 minutes preincubation at 37° C., read-out: Inhibition of platelet aggregation EC50
Protocol: 2. Antithrombotic Effect Method: The thrombocyte aggregation was measured in platelet-rich plasma from healthy test subjects using the Born and Cross method (J. Physiol. 170: 397 (1964)). In order to inhibit coaggulation the blood was mixed with 3.14% sodium citrate in a ratio by volume of 1:10. Collagen-induced aggregation: The decrease in the optical density of the platelet suspension was measured photometrically and recorded after the addition of the aggregation-initiating substance. The speed of aggregation was concluded from the angle of inclination of the density curve. The point on the curve at which there was maximum transmittance was used to calculate the optical density. The quantity of collagen used was as little as possible but sufficient to give an irreversible reaction curve. Standard commercial collagen produced by Hormonchemie of Munich was used. Before the addition of collagen the plasma was incubated with the substance for 10 minutes at 37° C. From the measurements obtained, an EC50 was determined graphically, relating to a 50% change in the optical density in terms of inhibiting aggregation.

Work on `N=C(N)c1ccc(-c2ccc(-n3ccn(CCC(=O)O)c3=O)cc2)cc1` [1(3), 1-(4'-amidino-4-biphenylyl)-3-(2-carboxy-ethyl)-3H-imidazol-2-one] yielded an IC50 (Human Thrombocytes) of 190 nM and an EC50 [1] of 1700 nM.

`COC(=O)CCc1ccc(-n2cc(-c3ccc(C(=N)N)cc3)n(C)c2=O)cc1` [2(81), 4-(4-amidino-phenyl)-1-[4-(2-methoxycarbonyl-ethyl)-phenyl]-3-methyl-3H-imidazol-2-one hydrochloride] showed an IC50 (Human Thrombocytes) of 19000 nM and an EC50 [1] of 1500 nM.

Work on `N=C(N)c1ccc(-n2ccn(-c3ccc(C=CC(=O)O)cc3)c2=O)cc1` [1(147), 1-(4-amidino-phenyl)-3-[4-(2-carboxy-ethenyl)-phenyl]-3H-imidazol-2-one] yielded an IC50 (Human Thrombocytes) of 27 nM and an EC50 [1] of 160 nM.

Molecule `N=C(N)c1ccc(N2CCN(CCNCC(=O)O)C2=O)cc1` [1(82), 1-(4-amidino-phenyl)-3-(2-carboxymethylaminoethyl)-imidazolidin-2-one] has an IC50 (Human Thrombocytes) of 17000 nM and an EC50 [1] of 29000 nM.

Molecule `CCOC(=O)CCN1C(=O)CN(c2ccc(-c3ccc(C(=N)N)cc3)cc2)C1=O` [2(2), 1-(4'-amidino-4-biphenylyl)-3-(2-ethoxycarbonyl-ethyl)-imidazolidin-2,4-dione hydrochloride] has an IC50 (Human Thrombocytes) of 25000 nM and an EC50 [1] of 630 nM.

In the case of `N=C(N)c1ccc(-c2ccc(N3CC(=O)N(CCC(=O)O)C3=O)cc2)cc1` [1(2), 1-(4'-amidino-4-biphenylyl)-3-(2-carboxy-ethyl)-imidazolidin-2,4-dione], the IC50 (Human Thrombocytes) is reported as 96 nM and the EC50 [1] is reported as 320 nM.

With `COC(=O)CCc1ccc(N2CCN(c3ccc(C(=N)N)cc3C)C2=O)cc1` [2(34), 1-(4-amidino-2-methyl-phenyl)-3-[4-(2-methoxycarbonyl-ethyl)-phenyl]-imidazolidin-2-one hydrochloride] the IC50 (Human Thrombocytes) was 7400 nM and the EC50 [1] was 350 nM.

With `N=C(N)c1ccc(N2CCCN(c3ccc(CCC(=O)O)cc3)C2=O)cc1` [1(7), 1-(4-amidino-phenyl)-3-[4-(2-carboxy-ethyl)-phenyl]-3,4,5,6-tetrahydro-1H-pyrimidin-2-one] the IC50 (Human Thrombocytes) was 2400 nM and the EC50 [1] was 10000 nM.

With `N=C(N)c1ccc(-n2ccn(-c3ccc(CC(N)C(=O)O)cc3)c2=O)cc1` (stereo not shown) [1(148), 1-(4-amidino-phenyl)-3-[4-(2-amino-2-carboxy-ethyl)-phenyl]-3H-imidazol-2-one] the IC50 (Human Thrombocytes) was 25 nM and the EC50 [1] was 110 nM.

`N=C(N)c1ccc(-c2ccc(C3CN(CCC(=O)O)C(=O)N3)cc2)cc1` (stereo not shown) [4(15), 4-(4'-amidino-4-biphenylyl)-1-(2-carboxy-ethyl)-imidazolidin-2-one hydrochloride] showed an IC50 (Human Thrombocytes) of 42 nM and an EC50 [1] of 300 nM.

Molecule `N=C(N)c1ccc(N2CCN(C3CCC(CCC(=O)O)CC3)C2=O)cc1` (stereo not shown) [1(46), 1-(4-amidino-phenyl)-3-[4-(2-carboxy-ethyl)cyclohexyl]-imidazolidin-2-one] has an IC50 (Human Thrombocytes) of 11 nM and an EC50 [1] of 40 nM.

In the case of `N=C(N)c1ccc(N2CCC(N3CCN(CCC(=O)O)C3=O)CC2)cc1` [1(24), 1-[1-(4-amidino-phenyl)-4-piperidinyl]-3-(2-carboxy-ethyl)-imidazolidin-2-one], the IC50 (Human Thrombocytes) is reported as 470 nM and the EC50 [1] is reported as 1100 nM.

`COC(=O)CCCCn1c(=O)n(-c2ccc(C(=N)N)cc2)c2ncccc21` [2(116), 3-(4-amidino-phenyl)-1-(4-methoxycarbonyl-butyl)-3H-imidazo[4,5-b]pyridin-2-one dihydrochloride] gave an IC50 (Human Thrombocytes) of 59000 nM and an EC50 [1] of 49000 nM.

Work on `COC(=O)CN1CCN(c2ccc(-c3ccc(C(=N)N)cc3)cc2)C1=O` [Example 2, 1-(4'-Amidino-4-biphenylyl)-3-methoxycarbonylmethyl-imidazolidin-2-one hydrochloride] yielded an IC50 (Human Thrombocytes) of 6000 nM and an EC50 [1] of 12000 nM.

`Cc1cc(C(=N)N)ccc1N1CCN(c2ccc(CCC(=O)O)cc2)C1=O` [1(36), 1-(4-amidino-2-methyl-phenyl)-3-[4-(2-carboxy-ethyl)-phenyl]-imidazolidin-2-one] showed an IC50 (Human Thrombocytes) of 37 nM and an EC50 [1] of 100 nM.

In the case of `Cn1c(-c2ccc(-c3ccc(C(=N)N)cc3)cc2)cn(CCC(=O)O)c1=O` [1(118), 4-(4'-amidino-4-biphenylyl)-1-(2-carboxy-ethyl)-3-methyl-3H-imidazol-2-onehydrochloride], the IC50 (Human Thrombocytes) is reported as 170 nM and the EC50 [1] is reported as 460 nM.

`CC(=O)N(CCN1CCN(c2ccc(C(=N)N)cc2)C1=O)CC(=O)O` [Example 30, 1-[2-(N-Acetyl-N-carboxymethyl-amino)-ethyl]-3-(4-amidino-phenyl)-imidazolidin-2-one] showed an IC50 (Human Thrombocytes) of 4400 nM and an EC50 [1] of 8300 nM.

Work on `Cc1cc(CN)ccc1N1CCN(c2ccc(CCC(=O)O)cc2)C1=O` [1(156), 1-(4-aminomethyl-2-methyl-phenyl)-3-[4-(2-carboxy-ethyl)-phenyl]-imidazolidin-2-one] yielded an IC50 (Human Thrombocytes) of 3600 nM and an EC50 [1] of 4100 nM.

For `N=C(N)c1ccc(-c2ccc(N3CCCN(CCC(=O)O)C3=O)cc2)cc1` [1(4), 1-(4'-amidino-4-biphenylyl)-3-(2-carboxy-ethyl)-3,4,5,6-tetrahydro-1H-pyrimidin-2-one], the IC50 (Human Thrombocytes) was 3900 nM and the EC50 [1] was > 100000 nM.

Molecule `COC(=O)CCc1ccc(-n2ccn(-c3ccc(C(=N)N)cc3)c2=O)cc1` [2(58), 1-(4-amidino-phenyl)-3-[4-(2-methoxycarbonyl-ethyl)-phenyl]-3H-imidazol-2-one hydrochloride] has an IC50 (Human Thrombocytes) of 4700 nM and an EC50 [1] of 140 nM.

`N=C(N)c1ccc(N2CCN(c3ccc(CC(N)C(=O)O)cc3)C2=O)cc1` (stereo not shown) [4(18), 1-(4-amidino-phenyl)-3-[4-(2-amino-2-carboxy-ethyl)-phenyl]-imidazolidin-2-one] gave an IC50 (Human Thrombocytes) of 48 nM and an EC50 [1] of 210 nM.

Work on `COC(=O)CCc1ccc(N2CCN(c3ccc(CN)cc3)C2=O)cc1` [8(2), 1-(4-aminomethyl-phenyl)-3-[4-(2-methoxycarbonyl-ethyl)-phenyl]-imidazolidin-2-one hydrochloride] yielded an IC50 (Human Thrombocytes) of 450 nM and an EC50 [1] of 370 nM.

For `CCOC(=O)CCn1ccn(-c2ccc(-c3ccc(C(=N)N)cc3)cc2)c1=O` [2(3), 1-(4'-amidino-4-biphenylyl)-3-(2-ethoxycarbonyl-ethyl)-3H-imidazol-2-one h ydrochloride], the IC50 (Human Thrombocytes) was 18000 nM and the EC50 [1] was 3100 nM.

`COC(=O)C(Cc1ccc(-n2ccn(-c3ccc(C(=N)N)cc3)c2=O)cc1)N(Cc1ccccc1)Cc1ccccc1` (stereo not shown) [2(127), 1-(4-amidino-phenyl)-3-[4-(2-dibenzylamino-2-methoxycarbonyl-ethyl)-phenyl]-3H-imidazol-2-one hydrochloride] showed an IC50 (Human Thrombocytes) of 5600 nM and an EC50 [1] of 18000 nM.

For `COC(=O)CCN1CCN(c2ccc(-c3ccc(C(=N)N)cc3)cc2)S1(=O)=O` [2(20), 2-(4'-amidino-4-biphenylyl)-5-(2-methoxycarbonyl-ethyl)-3,4-dihydro-2H,5H-1,2,5-thiadiazole-1,1-dioxide hydrochloride], the IC50 (Human Thrombocytes) was 5700 nM and the EC50 [1] was 690 nM.

In the case of `N=C(N)c1ccc(-c2ccc(-n3c(=O)n(CCC(=O)O)c4cccnc43)cc2)cc1` [1(143), 3-(4'-amidino-4-biphenylyl)-1-(2-carboxy-ethyl)-3H-imidazo[4,5-b]pyridin-2-one], the IC50 (Human Thrombocytes) is reported as > 10000 nM and the EC50 [1] is reported as 22000 nM.

`CCc1nn(-c2ccc(C(=N)N)cc2)c(=O)n1-c1ccc(CCC(=O)O)cc1` [1(140), 2-(4-amidino-phenyl)-4-[4-(2-carboxy-ethyl)-phenyl]-5-ethyl-4H-1,2,4-triazol-3-one] gave an IC50 (Human Thrombocytes) of 21 nM and an EC50 [1] of 30 nM.

In the case of `CN1C(=O)N(CCC(=O)O)CC1c1ccc(-c2ccc(C(=N)N)cc2)cc1` (stereo not shown) [4(14), 4-(4'-amidino-4-biphenylyl)-1-(2-carboxy-ethyl)-3-methyl-imidazolidin-2-one hydrochloride], the IC50 (Human Thrombocytes) is reported as 41 nM and the EC50 [1] is reported as 200 nM.

With `COC(=O)CCc1ccc(-n2c(C)nn(-c3ccc(C(=N)N)cc3)c2=O)cc1` [2(118), 2-(4-amidino-phenyl)-4-[4-(2-methoxycarbonyl-ethyl)-phenyl]-5-methyl-4H-1,2,4-triazol-3-one hydrochloride] the IC50 (Human Thrombocytes) was 2000 nM and the EC50 [1] was 70 nM.

Work on `COC(=O)CCCCN1CCN(c2ccc(C(=N)N)cc2)C1=O` [2(71), 1-(4-amidino-phenyl)-3-(4-methoxycarbonyl-butyl)-imidazolidin-2-one hydrochloride] yielded an IC50 (Human Thrombocytes) of 13000 nM and an EC50 [1] of 14000 nM.

For `N=C(N)c1ccc(-n2ccn(-c3ccc(CC(C(=O)O)N(Cc4ccccc4)Cc4ccccc4)cc3)c2=O)cc1` (stereo not shown) [1(150), 1-(4-amidino-phenyl)-3-[4-(2-carboxy-2-dibenzylamino-ethyl)-phenyl]-3H-imidazol-2-one], the IC50 (Human Thrombocytes) was 370 nM and the EC50 [1] was 9900 nM.

`CC(C)(CC(=O)O)c1ccc(N2CCN(c3ccc(C(=N)N)cc3)C2=O)cc1` [1(51), 1-(4-amidino-phenyl)-3-[4-(3-carboxy-2-methyl-2-propyl)-phenyl]-imidazolidin-2-one] gave an IC50 (Human Thrombocytes) of 3600 nM and an EC50 [1] of 13000 nM.

From US5276049A, “Cyclic urea derivatives, pharmaceutical compositions containing these compounds and methods of using the same” (Dr. Karl Thomae GmbH, priority 1991, dated 1994)
